In ChEMBL document CHEMBL1134971, “Novel human histamine H(3) receptor antagonists” (Bioorg Med Chem Lett, 2002):

Experiments:
Histamine H3 receptor [1] = target: T1, Histamine H3 receptor (Homo sapiens, UniProt Q9Y5N1); assay: Binding affinity for human histamine H3 receptor
[2] = target: Histamine H3 receptor (Rattus norvegicus) (UniProt Q9QYN8); assay: Ex-vivo effective dose required for rat histamine H3 receptor occupancy by the compound using [3H]R-alpha-methylhistamine upon subcutaneous administration
Chain of Histamine H3 receptor (Rattus norvegicus) (Q9QYN8 whole entry): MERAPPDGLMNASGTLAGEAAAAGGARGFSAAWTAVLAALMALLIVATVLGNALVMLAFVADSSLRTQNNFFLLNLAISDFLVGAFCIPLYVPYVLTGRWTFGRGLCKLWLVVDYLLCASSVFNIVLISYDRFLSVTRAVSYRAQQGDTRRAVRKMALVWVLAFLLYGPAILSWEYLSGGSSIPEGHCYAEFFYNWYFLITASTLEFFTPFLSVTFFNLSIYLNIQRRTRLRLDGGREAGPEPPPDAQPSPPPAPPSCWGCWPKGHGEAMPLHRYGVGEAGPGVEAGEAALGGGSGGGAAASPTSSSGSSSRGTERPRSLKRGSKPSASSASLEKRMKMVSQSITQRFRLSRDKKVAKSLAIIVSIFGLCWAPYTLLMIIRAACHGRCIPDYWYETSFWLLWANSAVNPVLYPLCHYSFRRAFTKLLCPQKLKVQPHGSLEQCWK

[3] = Half life in rat was tested; type: ADME, organism-based; settings: in vivo
[4] = Oral bioavailability in rat; type: ADME, organism-based; settings: in vivo, read-out: Bioavailabiility
Histamine H3 receptor [5] = target: T2, Histamine H3 receptor (Rattus norvegicus, UniProt Q9QYN8); assay: Antagonist activity for rat histamine H3 receptor was determined; type: functional; settings: read-out: pA2 (converted)
T2 sequence (Q9QYN8 whole entry): as above

Histamine H3 receptor [6] = target: T2, Histamine H3 receptor; assay: Compound was tested for its binding affinity for rat histamine H3 receptor
Histamine H3 receptor [7] = target: T1, Histamine H3 receptor; assay: Compound was tested for its binding affinity against human histamine H3 receptor

T1 sequence (Q9Y5N1 whole entry): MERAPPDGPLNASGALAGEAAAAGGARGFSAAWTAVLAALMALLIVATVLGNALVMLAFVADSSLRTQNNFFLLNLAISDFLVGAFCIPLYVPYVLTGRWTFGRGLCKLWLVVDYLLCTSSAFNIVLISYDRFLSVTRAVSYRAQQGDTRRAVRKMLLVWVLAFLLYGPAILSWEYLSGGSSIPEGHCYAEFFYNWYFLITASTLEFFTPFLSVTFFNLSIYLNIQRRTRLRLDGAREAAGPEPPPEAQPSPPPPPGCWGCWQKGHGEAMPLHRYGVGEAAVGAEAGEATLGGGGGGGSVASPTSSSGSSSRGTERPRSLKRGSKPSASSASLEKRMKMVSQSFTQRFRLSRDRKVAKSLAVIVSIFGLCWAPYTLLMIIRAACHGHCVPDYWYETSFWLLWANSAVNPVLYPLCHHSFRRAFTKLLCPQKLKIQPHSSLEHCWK

Structure (SMILES)	Ki (Histamine H3 receptor [1]) [nM]	further results
Cc1cccn2cc(-c3ccc(NC(=O)CCN4CCCCC4)cc3)nc12	300	–
Cc1ccn2cc(-c3ccc(C#CCCN4CCCCC4)cc3)nc2c1	7	–
Cc1ccn2cc(-c3ccc(OCCCN4CCCC4)cc3)nc2c1	5	–
CCCN(CCC)CCCOc1ccc(-c2cn3cccc(C)c3n2)cc1	43	–
CCCCN(CCCC)CCCOc1ccc(-c2cn3cccc([N+](=O)[O-])c3n2)cc1	11000	–
COc1cc(-c2cn3ccc(C)cc3n2)ccc1OCCCN1CCCCC1	69	–
Cc1cccn2cc(-c3ccc(OCCCn4ccnc4)cc3)nc12	1000	–
Cc1ccn2cc(-c3ccc(OCCCN4CCCCCC4)cc3)nc2c1	6	–
Cc1cccn2cc(-c3ccc(OCCCN4CCOCC4)cc3)nc12	80	–
c1ccn2cc(-c3ccc(OCCCN4CCCCC4)cc3)nc2c1	6	–
Cc1cccn2cc(-c3ccc(OCCCN4CCCCC4)cc3)nc12	3	–
Cc1cccn2cc(-c3ccc(OCCCN(C(C)c4ccccc4)C(C)c4ccccc4)cc3)nc12 (configuration not stated)	4000	–
Cc1cccn2cc(-c3ccc(OCCCN(C)C)cc3)nc12	13	–
Cc1ccn2cc(-c3ccc(OCCCN4CCCCC4)cc3)nc2c1	–	ED50 [2]: 0.2 mg/kg; half-life [3]: 5.2 h; bioavailability [4]: 57%; Kb (Histamine H3 receptor [5]): 4.68 nM; Ki (Histamine H3 receptor [6]): 10 nM
CCCCN(CCCC)CCCOc1ccc(-c2nc3c(C)cccn3c2C)cc1	870	–
Cc1ccn2cc(-c3ccc(OCCCN4CCCCC4)cc3C)nc2c1	2	–
S=C(NC1CCCCC1)N1CCC(c2cnc[nH]2)CC1	–	ED50 [2]: 2 mg/kg
Cc1ccn2cc(-c3ccc(/C=C/CCN4CCCCC4)cc3)nc2c1	22	–
Cc1cccn2cc(-c3ccc(NS(=O)(=O)CCCN4CCCCC4)cc3)nc12	500	–
Cc1cccn2cc(-c3ccc(NCCCN4CCCCC4)cc3)nc12	15	–
Cc1ccn2cc(-c3ccc(CCCCN4CCCCC4)cc3)nc2c1	17	–
CCCCN(CCCC)CCCOc1ccc(-c2cn3cccc(C)c3n2)cc1	–	Ki (Histamine H3 receptor [7]): 4000 nM
Cc1cc(-c2cn3ccccc3n2)ccc1OCCCN1CCCCC1	28	–
